Test results published in patent US4432732A, “Method for predicting properties of a chemical compound” (priority 1982, dated 1984).
Entries after “also recorded” stand apart in the source; their conditions may differ. Where a SMILES comes first, the peptide text is derived from it. [ ]: non-standard residue; d: D form. The star is where a group is joined. ξ: configuration not given here. ξS = NC(CO)C(=O)O; OiPr = CC(C)O*

Columns and labels:
[1] = cited from earlier work; for taste in words: bitter or sweet taste; for sweetness, times sweeter than sucrose: taste of sucrose is 1
small animals = conditions: intravenous dose; cited from earlier work
[2] = acute toxicity, LD50 (intravenous dose, small animals); conditions: in vivo, LD50 (mg/kg) divided by molecular weight, multiplied by 100
Protocol: Conventionally, the degree of toxicity of a compound has been known only after actual dose. LD50 data for small animals (intravenous dose) contained in the Merck Index (9th edition) were thoroughly taken to use as a learning set, which amounts to more than 300 compounds. The predictability of this chart was tested with 82 other compounds.
Toxicity scale used for this study. Unit of ordinary LD50 values are mg/kg, where mg is the quantity of substance dosed for 50% lethality and kg is the weight of the test animal.
To standardize this value on the millimore base, the LD50 values is divided by the molecular weight. In FIG. 1, the quantity is further multiplied by 100 to avoid unfamiliarly small digits.

SMILES | taste in words [1] | also measured
N[C@@H](CC(=O)O)C(=O)N[C@@H](Cc1ccccc1)C(=O)O [(II)] (H-Asp-Phe-OH) | bitter taste is observed | –
CC(C)OC(=O)C(CO)NC(=O)[C@@H](N)CC(=O)O (stereo partly shown) [(VII)] (H-Asp-[ξS]-OiPr) | sweet peptides | sweetness, times sweeter than sucrose [1]: ~120 times
O=S(=O)(O)NC1CCCCC1 [cyclamic acid, reference compound] | lacking bitter taste | –
COc1cc(C(=O)OCCCN2CCCN(CCCOC(=O)c3cc(OC)c(OC)c(OC)c3)CC2)cc(OC)c1OC [Compound II] | – | observed LD50 (small animals): 26.6 mg/kg; LD50 [2]: 328 µmol/kg
COC(=O)[C@H](Cc1ccccc1)NC(=O)[C@@H](N)CC(=O)O [aspartame, reference compound] (H-Asp-Phe-OMe) | strong sweetness; also recorded: lacking bitter taste | sweetness, times sweeter than sucrose [1]: about 150 times
CC(=O)Nc1c(I)c(NC(C)=O)c(I)c(C(=O)O)c1I [Compound I] | – | observed LD50 (small animals): 14700 mg/kg; LD50 [2]: 22900 µmol/kg
OC[C@H]1O[C@@](CO)(O[C@H]2O[C@H](CO)[C@@H](O)[C@H](O)[C@H]2O)[C@@H](O)[C@@H]1O [sucrose, reference compound] | lacking bitter taste | –
CNC(=O)[C@H](Cc1ccc(O)cc1)NC(=O)[C@@H](N)CC(=O)O [(IV)] (H-Asp-Tyr-NHMe) | bitter taste is observed | –
N[C@@H](CC(=O)O)C(=O)N[C@@H](Cc1ccc(O)cc1)C(=O)O [(III)] (H-Asp-Tyr-OH) | bitter taste is observed | –
O=C1NS(=O)(=O)c2ccccc21 [saccharine, reference compound] | slight bitterness | –
COC(=O)[C@H](Cc1ccccc1)NC(=O)[C@@H](N)CCC(=O)O [(V)] | bitter taste is observed | –
N[C@@H](CCC(=O)O)C(=O)N[C@@H](Cc1ccccc1)C(=O)O [(VI)] | bitter taste is observed | –
